From patent publication US20250051321A1, “TRICYCLIC DERIVATIVE AND PREPARATION METHOD THEREFOR AND APPLICATION THEREOF” (SHANGHAI JEMINCARE PHARMACEUTICAL CO., LTD., priority 2021, published 2025)
Like-named read-outs stand apart in the source and are kept apart here.

Tested on: plasma LPA 18:1 and LPA 18:2
Assay: Human plasma ex vivo assay (LPA 18:1 / 18:2 by LC-MS/MS)
Format: biochemical
Conditions: 37° C., 2 hours
Experimental: The collected plasma was centrifuged at 4000 rpm for 15 minutes at 4° C. The supernatant was aliquoted into a 96-well plate (25 μL per well), sealed, and frozen at −80° C. for further use.
LPA 17:0 powder was dissolved in a mixed solution of water: isopropanol: formic acid (1:1:1) to a final concentration of […]. The mixture was aliquoted and frozen at −20° C.
1 volume of formic acid was added to 1000× methanol, mixed well, and stored at 4° C. a) The 96-well plate containing frozen plasma was removed from the −80° C. freezer and thawed on ice at room temperature. b) 6 μL of 50× LPA 17:0 (internal standard) and 264 μL of 0.1% FA were added to a clean well of the 96-well plate; the final concentration of LPA 17:0 (internal standard) was 50 nM. c) 6× compound was 1:3 serially diluted to a total of 8 concentrations, and 5 μL of the compound per well was added to the 96-well plate containing plasma. The maximum final concentration of the compound was 10 μM, and the final concentration of DMSO was 0.1%. The plate was centrifuged at 300 rpm for 30 seconds. The DMSO control sample reacted for 0 hours was used as the minimum value (Min), and the DMSO control sample reacted for 2 hours was used as the maximum value (Max). […]
d) The DMSO sample reacted for 0 hours was rapidly transferred to 0.1% FA solution containing the internal standard in step b) to terminate the reaction and precipitate plasma proteins. e) The 96-well plate containing plasma and compounds was rapidly incubated in a 37° C. incubator for 2 hours. After the incubation, 6 μL of 10× LPA 17:0 and 264 μL of 0.1% FA were added to each well to terminate the reaction and precipitate plasma proteins. […]
f) All the samples were mixed well with a pipette, and centrifuged at 4000 rpm for 10 minutes at 4° C. 150 μL of the supernatant was added to a 96-well U-bottom plate (Thermo 267245), sealed with silica gel, and then loaded. The contents of LPA 18:1 and LPA 18:2 in the samples were detected by LC-MS/MS system.
LPA 18:1(or 18:2) relative content=LPA 18:1(or 18:2) peak area/LPA 17:0 peak area Percentage reduction (%) in plasma LPA18:1(or 18:2)=(Max−X)/(Max−Min)*100 Max: LPA 18:1 (or 18:2) relative content of the DMSO sample reacted for 2 hours Min: LPA 18:1 (or 18:2) relative content of the DMSO sample reacted for 0 hours X: LPA 18:1 (or 18:2) relative content of the sample after compound treatment for 2 hours The IC50 of the compounds was calculated by fitting a nonlinear regression through percentage reduction in plasma LPA 18:1 (or 18:2) and log value of compound concentration using the software GraphPad Prism 8.
Y=Bottom+(Top−Bottom)/(1+10^((Log IC50−X)*Hill Slope))

[1] = LPA 18:1, read-out: Human plasma ex vivo assay IC50 (18:1 LPA)
[2] = LPA 18:2, read-out: Human plasma ex vivo assay IC50 (18:2 LPA)

Cc1cc(N2CC3(CN(C(=O)C(C)(C)O)C3)C2)nc2c(N(C)c3nc(-c4ccc(F)cc4)c(C#N)s3)c3c(nc12)[C@](C)(O)CC3 (single isomer, unassigned) [Example E25-a]
IC50 [1]: 0.372 µM
IC50 [2]: 0.366 µM

Cc1cc(N2CC3(CN(C(=O)C(C)(C)O)C3)C2)nc2c(N(C)c3nc(-c4ccc(F)cc4)c(C#N)s3)c3c(nc12)[C@@H](O)CC3 (single isomer, unassigned) [Example E32-a]
IC50 [1]: 0.323 µM
IC50 [2]: 0.331 µM

Cc1cc(N2CC3(CN(C(=O)C(C)(C)O)C3)C2)nc2c(N(C)c3nc(-c4ccc(F)cc4)c(C#N)s3)c3c(nc12)[C@H](O)CC3 (single isomer, unassigned) [Example E32-b]
IC50 [1]: 0.373 µM
IC50 [2]: 0.489 µM

CN(c1nc(-c2ccc(F)cc2)c(C#N)s1)c1c2c(nc3c(F)cc(N4CC5(CN(C(=O)C(C)(C)O)C5)C4)cc13)[C@@](C)(O)CC2 (single isomer, unassigned) [Example E35-a]
IC50 [1]: 0.388 µM
IC50 [2]: 0.284 µM

CN(c1nc(-c2ccc(F)cc2)c(C#N)s1)c1c2c(nc3c(F)cc(N4CC5(CN(C(=O)[C@@H]6CCCO6)C5)C4)cc13)[C@@H](O)CC2 (single isomer, unassigned) [Example E54-a]
IC50 [1]: 0.725 µM
IC50 [2]: 0.483 µM

CN(c1nc(-c2ccc(F)cc2)c(C#N)s1)c1c2c(nc3ccc(N4CCN(CC(=O)N5CC(O)C5)CC4)nc13)COC2 [Example A13]
IC50 [1]: 0.194 µM
IC50 [2]: 0.206 µM

CN(c1nc(-c2ccc(F)cc2)c(C#N)s1)c1c2c(nc3ccc(N4CC5(CN(C(=O)C(C)(C)O)C5)C4)nc13)CC2 [Example C24]
IC50 [1]: 0.232 µM
IC50 [2]: 0.221 µM

CN(c1nc(-c2ccc(F)cc2)c(C#N)s1)c1c2c(nc3c(F)cc(N4CC5(CN(C(=O)CN6CC[C@@H](O)C6)C5)C4)cc13)C(O)CC2 (stereo partly drawn) [Example E27]
IC50 [1]: 0.287 µM
IC50 [2]: 0.314 µM

CN(c1nc(-c2ccc(F)cc2)c(C#N)s1)c1c2c(nc3c(F)cc(N4CC5(CN(C(=O)CN6CC[C@H](O)C6)C5)C4)cc13)C(O)CC2 (stereo partly drawn) [Example E28]
IC50 [1]: 0.298 µM
IC50 [2]: 0.271 µM

CN(c1nc(-c2ccc(F)cc2)c(C#N)s1)c1c2c(nc3c(F)cc(N4CC5(CN(C(=O)C(C)(C)N)C5)C4)cc13)C(O)CC2 (stereo not drawn) [Example E29]
IC50 [1]: 0.526 µM
IC50 [2]: 0.522 µM

COC(C)(C)C(=O)N1CC2(C1)CN(c1cc(F)c3nc4c(c(N(C)c5nc(-c6ccc(F)cc6)c(C#N)s5)c3c1)CCC4O)C2 (stereo not drawn) [Example E30]
IC50 [1]: 0.165 µM
IC50 [2]: 0.15 µM

CN(c1nc(-c2ccc(F)cc2)c(C#N)s1)c1c2c(nc3c(F)cc(N4CC5(CN(CC(=O)N6CC[C@@H](O)C6)C5)C4)cc13)C(O)CC2 (stereo partly drawn) [Example E31]
IC50 [1]: 0.222 µM
IC50 [2]: 0.164 µM

CC(C(=O)N1CC(O)C1)N1CCN(c2cc(F)c3nc4c(c(N(C)c5nc(-c6ccc(F)cc6)c(C#N)s5)c3c2)CCC4O)CC1 (stereo not drawn) [Example E33]
IC50 [1]: 0.323 µM
IC50 [2]: 0.154 µM

CN(c1nc(-c2ccc(F)cc2)c(C#N)s1)c1c2c(nc3c(F)cc(N4CC5(CN(C(=O)C(C)(C)O)C5)C4)cc13)C(C)(O)CC2 (stereo not drawn) [Example E35]
IC50 [1]: 0.301 µM
IC50 [2]: 0.393 µM

CN(c1nc(-c2ccc(F)cc2)c(C#N)s1)c1c2c(nc3c(F)cc(N4CC5(CN(C(=O)C(C)(C)O)C5)C4)cc13)C(=O)CC2 [Example E36]
IC50 [1]: 0.371 µM
IC50 [2]: 0.308 µM

CN(c1nc(-c2ccc(F)cc2)c(C#N)s1)c1c2c(nc3c(F)cc(N4CC5(CN(C(=O)CO)C5)C4)cc13)C(O)CC2 (stereo not drawn) [Example E39]
IC50 [1]: 0.317 µM
IC50 [2]: 0.398 µM

CN(c1nc(-c2ccc(F)cc2)c(C#N)s1)c1c2c(nc3c(F)cc(N4CCN(CC(=O)N5CC[C@@H](O)C5)CC4)cc13)C(O)CC2 (stereo partly drawn) [Example E40]
IC50 [2]: 0.337 µM

CN(c1nc(-c2ccc(F)cc2)c(C#N)s1)c1c2c(nc3c(F)cc(N4CCN(CC(=O)N5CC[C@H](O)C5)CC4)cc13)C(O)CC2 (stereo partly drawn) [Example E41]
IC50 [1]: 0.305 µM
IC50 [2]: 0.295 µM

CN1CCC(F)(C(=O)N2CC3(C2)CN(c2cc(F)c4nc5c(c(N(C)c6nc(-c7ccc(F)cc7)c(C#N)s6)c4c2)CCC5O)C3)C1 (stereo not drawn) [Example E42]
IC50 [1]: 0.412 µM
IC50 [2]: 0.469 µM

CC(C)C(=O)N1CC2(C1)CN(c1cc(F)c3nc4c(c(N(C)c5nc(-c6ccc(F)cc6)c(C#N)s5)c3c1)CCC4O)C2 (stereo not drawn) [Example E43]
IC50 [1]: 0.654 µM
IC50 [2]: 0.737 µM

CN(c1nc(-c2ccc(F)cc2)c(C#N)s1)c1c2c(nc3c(F)cc(N4CC5(CN(CC(=O)N6CC(C)(O)C6)C5)C4)cc13)C(O)CC2 (stereo not drawn) [Example E44]
IC50 [1]: 0.293 µM
IC50 [2]: 0.296 µM

CN(c1nc(-c2ccc(F)cc2)c(C#N)s1)c1c2c(nc3c(F)cc(N4CC5(CCN(CC(=O)N6CC(O)C6)CC5)C4)cc13)C(O)CC2 (stereo not drawn) [Example E45]
IC50 [1]: 0.584 µM
IC50 [2]: 0.356 µM

CN(c1nc(-c2ccc(F)cc2)c(C#N)s1)c1c2c(nc3c(F)cc(N4CC5(CN(C(=O)CN6CC(O)C6)C5)C4)cc13)C(O)CC2 (stereo not drawn) [Example E47]
IC50 [1]: 0.437 µM
IC50 [2]: 0.409 µM

CN(c1nc(-c2ccc(F)cc2)c(C#N)s1)c1c2c(nc3c(F)cc(N4CCC5(CCN(CC(=O)N6CC(O)C6)CC5)C4)cc13)C(O)CC2 (stereo not drawn) [Example E48]
IC50 [1]: 0.74 µM
IC50 [2]: 0.671 µM

CN(c1nc(-c2ccc(F)cc2)c(C#N)s1)c1c2c(nc3c(F)cc(N4CC5(CN(C(=O)C6CC(=O)OC67CCCC7)C5)C4)cc13)C(O)CC2 (stereo not drawn) [Example E49]
IC50 [1]: 0.494 µM
IC50 [2]: 0.576 µM

CN(c1nc(-c2ccc(F)cc2)c(C#N)s1)c1c2c(nc3c(F)cc(N4CC5(CN(C(=O)[C@H]6CCCN6C)C5)C4)cc13)C(O)CC2 (stereo partly drawn) [Example E50]
IC50 [1]: 0.583 µM
IC50 [2]: 0.546 µM

CN(c1nc(-c2ccc(F)cc2)c(C#N)s1)c1c2c(nc3c(F)cc(N4CC5(CN(C(=O)[C@@H]6CCCN6C)C5)C4)cc13)C(O)CC2 (stereo partly drawn) [Example E51]
IC50 [1]: 0.348 µM
IC50 [2]: 0.85 µM

CN(c1nc(-c2ccc(F)cc2)c(C#N)s1)c1c2c(nc3c(F)cc(N4CC5(CN(C(=O)C6(N)CCOC6)C5)C4)cc13)C(O)CC2 (stereo not drawn) [Example E52]
IC50 [1]: 0.67 µM
IC50 [2]: 0.423 µM

CN(c1nc(-c2ccc(F)cc2)c(C#N)s1)c1c2c(nc3c(F)cc(N4CC5(CN(C(=O)C6CCOC6=O)C5)C4)cc13)C(O)CC2 (stereo not drawn) [Example E56]
IC50 [1]: 0.499 µM
IC50 [2]: 0.44 µM

CN(c1nc(-c2ccc(F)cc2)c(C#N)s1)c1c2c(nc3c(F)cc(N4CC5(CN(CC(=O)N6CC(O)C6)C5)C4)cc13)C(O)CC2 (stereo not drawn) [Example E57]
IC50 [1]: 0.183 µM
IC50 [2]: 0.171 µM

CN(c1nc(-c2ccc(F)cc2)c(C#N)s1)c1c2c(nc3c(F)cc(N4CC5(CN(C(=O)C6CC(O)C6)C5)C4)cc13)C(O)CC2 (stereo not drawn) [Example E58]
IC50 [1]: 0.263 µM
IC50 [2]: 0.271 µM

CN(c1nc(-c2ccc(F)cc2)c(C#N)s1)c1c2c(nc3c(F)cc(N4CC5(CN(C(=O)C6(C)CCOC6)C5)C4)cc13)C(O)CC2 (stereo not drawn) [Example E59]
IC50 [1]: 0.24 µM
IC50 [2]: 0.405 µM

CN(c1nc(-c2ccc(F)cc2)c(C#N)s1)c1c2c(nc3c(F)cc(N4CC5(CN(C(=O)C6CCCC6)C5)C4)cc13)C(O)CC2 (stereo not drawn) [Example E60]
IC50 [1]: 0.462 µM
IC50 [2]: 0.448 µM

CN(c1nc(-c2ccc(F)cc2)c(C#N)s1)c1c2c(nc3c(F)cc(N4CC5(CN(C(=O)[C@H]6CCCO6)C5)C4)cc13)C(O)CC2 (stereo partly drawn) [Example E61]
IC50 [1]: 0.583 µM
IC50 [2]: 0.839 µM

CN(c1nc(-c2ccc(F)cc2)c(C#N)s1)c1c2c(nc3c(F)cc(N4CC5(CN(C(=O)C6CCC(=O)O6)C5)C4)cc13)C(O)CC2 (stereo not drawn) [Example E62]
IC50 [1]: 0.332 µM
IC50 [2]: 0.576 µM
